Results: patent US6664039B1, “Methods and compositions for modulating neurodegeneration” (California Institute of Technology, priority 1998, dated 2003)
Entries after “also recorded” stand apart in the source; their conditions may differ.

Assays:
bubblegum mutant flies [1] = assay: Lifespan of bubblegum mutant flies; type: in vivo, Drosophila; conditions: male mutant flies treated with oil from larval stage
Method: Mutagenesis and screen. Drosophilia lines carrying P(lacZ, w+) were screened for mutations causing reduced lifespan at 29° C.
(§1) To determine whether similar dietary treatment can reduce the level of C26 and/or prevent the pathology seen in bubblegum, 2.5% of GTO oil was added to the normal corn meal-yeast-agar medium. […] However, knowing that oil treatment in ALD was not able to prevent the progression of the disease once patients had shown neurological symptoms, we decided to treat mutant flies with the oil at pre-adult stages. First instar larvae were raised in the oil-containing medium until eclosion and the adult flies were then transferred into fresh medium, still containing the oil, changed every 3 days.

C26 = conditions: ALD, feeding GTO oil, within 4 months; cited from earlier work
VLCFAs = assay: Assay of very long chain fatty acids by gas chromatography in bubblegum flies; type: in vivo, Drosophila; conditions: male mutant flies treated from larval stage, 15 days old, compared with parental strain
Method: Assay of very long chain fatty acids by gas chromatography. To determine whether bubblegum has an accumulation of VLCFAs, fatty acid analysis by gas chromatography was performed on 15 day old flies, comparing homozygous mutant flies with those of the parent strain from which bubblegum was derived.
Extracts of whole male or female flies were used for purification and methylation of fatty acids. Gas chromatography was performed with a HP-5MS column (30 m×0.25 mm, 0.25-μm film thickness) and mass spectrometry was used to analyze the fatty acid methyl esters. Identification and measurement of fatty acid concentrations were based on an oil reference standard (NHI-F) from Sigma Co. and the C15 added as an internal standard.
as §1

bubblegum mutant flies [2] = assay: Brain (lamina) degeneration in bubblegum mutant flies by light and electron microscopy; type: in vivo, Drosophila; conditions: for degeneration: male mutant flies raised in oil-containing medium from first instar larvae, 15 day-old adults
Method: Tissue preparation for microscopy. Fly heads were prepared by fixation in 1% paraformaldehyde+1% glutaraldehyde, postfixation in 1% osmium tetroxide, dehydration in an ethanol series, and embedding in Epon 812. For light microscopy, […] were stained with 1% toludine blue 1% Borax. For electron microscopy, ultrathin sections (80 nm) were examined with a Philips 201 electron microscope at 60 kV.
as §1

bubblegum mutant flies [3] = assay: Countercurrent phototaxis test; type: in vivo, Drosophila; conditions: 5 day old bubblegum raised with the oil from the larval stage
From the text: Phototactic analysis. In ALD, visual loss is on of the clinical symptoms, and anatomical analysis has shown abnormalities of the optic nerve and degeneration of ganglion cell layer. Flies transformed with P-elements expressing eye pigment, as is the case for bubblegum, are phototactic. A countercurrent phototaxis test was used to examine the visual behavior of bubblegum. […] Therefore, the oil treatment can prevent the biochemical, structural, and physiological defects caused by the mutation.
Flies were placed in a countercurrent distribution apparatus and responses to light were analyzed. Each numbered tube represents the number of positive responses in a total of 5 trials. In control tests for the from-light response, neither group of flies moved away from light.

CCCCCCCC/C=C\CCCCCCCC(=O)OCC(COC(=O)CCCCCCC/C=C\CCCCCCCC)OC(=O)CCCCCCC/C=C\CCCCCCCC [GTO, glyceryl trioleate]
lifespan (bubblegum mutant flies [1]): recovered
reduction of the level of C26 in plasm (C26): about 50%
levels of VLCFAs (VLCFAs): becoming normal
levels of VLCFAs (VLCFAs; listed as GTO oil): reduced to normal
onset of brain degeneration (bubblegum mutant flies [2]; adult mutant flies transferred to medium with 2.5% GTO oil, fed 15 days following emergence): reduced only slightly
age-dependent degeneration phenotype (bubblegum mutant flies [2]; homozygous females fed the oil): similarly prevented
degeneration (bubblegum mutant flies [2]): largely prevented; also recorded: prevented the onset of degeneration
degeneration (bubblegum mutant flies [2]; listed as GTO oil): largely been prevented
phototactic response (response to the light) (bubblegum mutant flies [3]): greatly enhanced response to the light
phototactic response (response to the light) (bubblegum mutant flies [3]; listed as oil): showed a phototactic response
